BindingDB's records for doi:10.1016/j.bmcl.2004.08.038 (Glaxosmithkline, 2004)

Molecular target: T1, Dimer of Gag-Pol polyprotein [501-599,Q508K,L534I,L564I,C568A,C596A] (Human immunodeficiency virus 1, UniProt P03367, C568A/C596A/L534I/L564I/Q508K)
T1 construct: 501-599
Test: Protease Inhibition Assay
Settings: pH 6.4; 25 °C
Description: The Ki values were determined using fluorogenic substrate, 2-(aminobenzoyl)-Thr-Ile-Nle-Phe(p-NO2)-Gln-ArgNH2. A standard curve relating changes in fluorescent intensity to changes in concentration of product was used to convert fluorescent changes into molar velocities. The amount of cleavage was determined by HPLC.

| SMILES | Ki [nM] |
| --- | --- |
| O=C(N[C@H]1c2ccccc2C[C@H]1O)[C@H](Cc1ccccc1)C[C@H](O)CN1C(=O)N(Cc2ccccn2)C[C@@H]1Cc1ccccc1 [(2R,4S)-2-benzyl-5-[(5S)-5-benzyl-2-oxo-3-(pyridin-2-ylmethyl)imidazolidin-1-yl]-4-hydroxy-N-[(1S,2R)-2-hydroxy-2,3-dihydro-1H-inden-1-yl]pentanamide] | 41 |
| O=C(N[C@H]1c2ccccc2C[C@H]1O)[C@H](Cc1ccccc1)C[C@H](O)CN1C(=O)N(Cc2cccnc2)C[C@@H]1Cc1ccccc1 [(2R,4S)-2-benzyl-5-[(5S)-5-benzyl-2-oxo-3-(pyridin-3-ylmethyl)imidazolidin-1-yl]-4-hydroxy-N-[(1S,2R)-2-hydroxy-2,3-dihydro-1H-inden-1-yl]pentanamide] | 18 |
| O=C(N[C@H]1c2ccccc2C[C@H]1O)[C@H](Cc1ccccc1)C[C@H](O)CN1C(=O)N(Cc2ccncc2)C[C@@H]1Cc1ccccc1 [(2R,4S)-2-benzyl-5-[(5S)-5-benzyl-2-oxo-3-(pyridin-4-ylmethyl)imidazolidin-1-yl]-4-hydroxy-N-[(1S,2R)-2-hydroxy-2,3-dihydro-1H-inden-1-yl]pentanamide] | 190 |
| COc1cc(CN2C[C@H](Cc3ccccc3)N(C[C@@H](O)C[C@@H](Cc3ccccc3)C(=O)N[C@H]3c4ccccc4C[C@H]3O)C2=O)cc(OC)c1OC [(2R,4S)-2-benzyl-5-[(5S)-5-benzyl-2-oxo-3-[(3,4,5-trimethoxyphenyl)methyl]imidazolidin-1-yl]-4-hydroxy-N-[(1S,2R)-2-hydroxy-2,3-dihydro-1H-inden-1-yl]pentanamide] | 100 |
| O=C(N[C@H]1c2ccccc2C[C@H]1O)[C@H](Cc1ccccc1)C[C@H](O)CN1C(=O)N(Cc2cccc(F)c2)C[C@@H]1Cc1ccccc1 [(2R,4S)-2-benzyl-5-[(5S)-5-benzyl-3-[(3-fluorophenyl)methyl]-2-oxoimidazolidin-1-yl]-4-hydroxy-N-[(1S,2R)-2-hydroxy-2,3-dihydro-1H-inden-1-yl]pentanamide] | 3.2 |
| CS(=O)(=O)c1ccc(CN2C[C@H](Cc3ccccc3)N(C[C@@H](O)C[C@@H](Cc3ccccc3)C(=O)N[C@H]3c4ccccc4C[C@H]3O)C2=O)cc1 [(2R,4S)-2-benzyl-5-[(5S)-5-benzyl-3-[(4-methanesulfonylphenyl)methyl]-2-oxoimidazolidin-1-yl]-4-hydroxy-N-[(1S,2R)-2-hydroxy-2,3-dihydro-1H-inden-1-yl]pentanamide] | 300 |
| COc1ccc(CN2C[C@H](Cc3ccccc3)N(C[C@@H](O)C[C@@H](Cc3ccccc3)C(=O)N[C@H]3c4ccccc4C[C@H]3O)C2=O)cc1 [(2R,4S)-2-benzyl-5-[(5S)-5-benzyl-3-[(4-methoxyphenyl)methyl]-2-oxoimidazolidin-1-yl]-4-hydroxy-N-[(1S,2R)-2-hydroxy-2,3-dihydro-1H-inden-1-yl]pentanamide] | 5.6 |
